{
  "source": "patent US10413531B2",
  "about": "“Methods of treating bladder cancer” (Abraxis BioScience, LLC, priority 2013, dated 2019)",
  "origin": "cited, not measured here",
  "key": {"[1]": {"conditions": "Lin et al. (2013) Int J Cancer"}, "ABCB1/ABCG2": {"test_system": "ABCB1/ABCG2", "conditions": "Lin et al. (2013) Int J Cancer"}},
  "data": [
    {"smiles": "COc1ccc(COc2cc3oc(=O)c4cc(C(C)O)ccc4c3cc2OC)cc1", "note": "(centres unmarked) [Palomid 529]", "values": [
      {"measurement": "brain penetration", "setting": "[1]", "result": "good brain penetration"},
      {"measurement": "affinity for ABCB1/ABCG2", "setting": "ABCB1/ABCG2", "result": "lacks affinity for ABCB1/ABCG2"}
    ]}
  ]
}
